# From paper PMC11603412, “Anti-hepatocellular carcinoma activities of novel hydrazone derivatives via downregulation of interleukin-6” (RSC Advances, 2024)
# “Also recorded” adds a separate entry of the source.
# System: IL-6
# Assay: IL-6 gene expression (RT-PCR)
# Format: cell-based
# Settings: normalised to β-actin, versus control group
# Method: After two rounds of PBS washing, total RNA was extracted using the TRIzol Reagent, and cDNA synthesis was performed using the high-capacity cDNA reverse transcription kit in accordance with the manufacturer's instructions. The qPCR reaction mixture contained so-fast EvaGreen supermix (10 μL), cDNA (2 μL), invitrogen RT-PCR grade water (6 μL), and the primer pair (500 nM; forward primer 5′-CAAATTCGGTACATCCTC-3′, reverse primer 5′-CTGGCTTGTTCCTCACTA-3′). The amplification started with heating 10 min at 95 °C, followed by 40 cycles of 15 s at 95 °C, 20 s at 55 °C and 30 s at 72 °C. The amplification data was then analyzed as previously described previously with normalization to β-actin.[35]
row,SMILES,IL-6 mRNA expression
1,O=C1CCC(=O)N1N=C(C1CC1)C1CC1 [Compound 16],significant (P < 0.001) decrease
2,"CNC(=O)c1cc(Oc2ccc(NC(=O)Nc3ccc(Cl)c(C(F)(F)F)c3)cc2)ccn1 [Sorafenib, reference compound]",significant (P < 0.001) decrease

# System: Cytochrome C
# Assay: Cytochrome C sandwich ELISA
# Format: cell-based
# Settings: versus control group
# Method: Cytochrome C was quantified using a sandwich ELISA kit (Abcam, Cambridge, UK) according to the manufacturer's procedures. After the addition of the TMB substrate and the development of the color, the optical density was measured using a Stat fax microplate reader, USA, at 450 nm.
row,SMILES,cytochrome C concentration
1,O=C1CCC(=O)N1N=C(C1CC1)C1CC1 [Compound 16],significant increase; also recorded: increase in cytochrome C greater than sorafenib
2,"CNC(=O)c1cc(Oc2ccc(NC(=O)Nc3ccc(Cl)c(C(F)(F)F)c3)cc2)ccn1 [Sorafenib, reference compound]",significant increase

# System: HepG2 cells
# Assay: Propidium iodide cell cycle flow cytometry
# Format: cell-based, human
# Settings: not given
# Method: (§1) Cells were harvested, aliquoted up to 1 × 10^6 cells/100 μL in FACS tubes, washed twice with 2 mL of PBS, centrifuged at 300 × g for five minutes, and the buffer was decanted. Reconstituted cells in 100 μL of staining buffer for flow cytometry. HepG2 cells were stained with propidium iodide according to the technique offered via the kit and subsequently performed on the cytometer. The distribution of the cell cycles was estimated and analyzed using a FACScan TM device (BD, Franklin Lakes, NJ). Furthermore, the caspase-3 apoptotic marker levels were investigated by flow cytometry. During the flow cytometry assay, we investigated a population of HepG2 cells to obtain enough cells for statistically significant detection.
SMILES,cells in G2/M phase,cells in S-phase,cells in the G0/G1 phase
O=C1CCC(=O)N1N=C(C1CC1)C1CC1 [Compound 16],1.2%,4.5%,
"CNC(=O)c1cc(Oc2ccc(NC(=O)Nc3ccc(Cl)c(C(F)(F)F)c3)cc2)ccn1 [Sorafenib, reference compound]",10.68%,4.17%,74.93%

# System: HepG2 cell line
# Assay: MTT cytotoxicity assay, HepG2
# Format: cell-based, human
# Settings: Homo sapiens, HepG2, 24 h
# Method: (§2) The HepG2 cell line was obtained from ATCC (Rockville, MD). Liver mesenchymal stem cells were harvested from liver biopsy according to previously published protocols.[34] Cells were grown in DMEM media with 10% fetal bovine serum (FBS), 100 U per mL penicillin, and […] streptomycin at 37 °C, 5% CO2. The MTT assay kit, which relies on succinate dehydrogenase in living cells' mitochondria to convert the 3-(4,5-dimethylthiazol-2-yl)-2,5-diphenyltetrazolium bromide (MTT) dye to violet formazan crystals, was used to calculate the vitality of individual cells. 6000 cells per well were seeded in the 96-well plate containing, which were then incubated for 24 h. Different concentrations of drug were dissolved in DMEM and then added to the wells to replace the culture medium. The medium was discarded after incubation for 24 h under the same conditions, and 100 μL of MTT (2 mg mL^−1) were added. After 3 h of incubation at 37 °C, the generated formazan crystals generated were dissolved in 50 μL of DMSO. The optical density was then measured using a Stat Fax ELISA plate reader (Romer Labs, Getzersdorf, Austria) at 570 nm with a reference wavelength of 630 nm after incubating the plate at 37 °C for 15 min. As a positive control, the tyrosine kinase inhibitor sorafenib (Bayer, Germany) was employed. DMSO was used as a solvent and its final concentration was less than 0.2%. SI and IC50 were calculated. Triplicates of each in vitro test were performed.[33]
row,SMILES,IC50
1,"NN=C(C1CC1)C1CC1 [Compound 2, dicyclopropylmethylene hydrazone]",94.7 µM
2,COc1ccc(/C=N\N=C(C2CC2)C2CC2)cc1 [Compound 3a],48.2 µM
3,O=[N+]([O-])c1ccc(/C=N\N=C(C2CC2)C2CC2)cc1 [Compound 3b],> 100 µM
4,"O=C1Nc2ccccc2/C1=N/N=C(C1CC1)C1CC1 [Compound 4, 3-(dicyclopropylmethylene)hydrazone indolin-2-one]",53.7 µM
5,Oc1ccccc1/C=N/N=C/c1ccccc1O [Compound 5],75.8 µM
6,NC1=NNC2(C(=O)Nc3ccccc32)N1N=C(C1CC1)C1CC1 (centres unmarked) [Compound 7a],> 100 µM
7,O=C1Nc2ccccc2C12NN=C(c1ccccc1)N2N=C(C1CC1)C1CC1 (centres unmarked) [Compound 7b],> 100 µM
8,NC1=NNC(c2ccccc2O)N1/N=C\c1ccccc1O (centres unmarked) [Compound 8a],62.2 µM
9,Oc1ccccc1/C=N\N1C(c2ccccc2)=NNC1c1ccccc1O (centres unmarked) [Compound 8b],> 100 µM
10,"Cc1nc2ccccc2c(=O)n1N=C(C1CC1)C1CC1 [Compound 11, 3-((dicyclopropylmethylene)amino)-2-methylquinazolin-4(3H)-one]",> 100 µM
11,O=C1C(=O)c2ccccc2C2=C1NNC(C1CC1)(C1CC1)O2 [Compound 13],61.4 µM
12,O=C1CCC(=O)N1N=C(C1CC1)C1CC1 [Compound 16],23.6 µM
13,NC1=CC(=O)NNC1(C1CC1)C1CC1 [Compound 18],89.5 µM
14,Cc1nc2ccccc2c(=O)n1NC(=S)N=C(C1CC1)C1CC1 [Compound 20],48.6 µM
15,"CNC(=O)c1cc(Oc2ccc(NC(=O)Nc3ccc(Cl)c(C(F)(F)F)c3)cc2)ccn1 [Sorafenib, reference compound]",25.6 µM

# Same assay, conditions: MTT assay, in words
row,SMILES,cytotoxic action against HepG2
1,"NN=C(C1CC1)C1CC1 [Compound 2, dicyclopropylmethylene hydrazone]",excellent cytotoxic action
2,"O=C1Nc2ccccc2/C1=N/N=C(C1CC1)C1CC1 [Compound 4, 3-(dicyclopropylmethylene)hydrazone indolin-2-one]",excellent cytotoxic action
3,NC1=NNC(c2ccccc2O)N1/N=C\c1ccccc1O (centres unmarked) [Compound 8a],excellent cytotoxic action
4,O=C1C(=O)c2ccccc2C2=C1NNC(C1CC1)(C1CC1)O2 [Compound 13],excellent cytotoxic action
5,O=C1CCC(=O)N1N=C(C1CC1)C1CC1 [Compound 16],excellent cytotoxic action
6,NC1=CC(=O)NNC1(C1CC1)C1CC1 [Compound 18],excellent cytotoxic action
7,Cc1nc2ccccc2c(=O)n1NC(=S)N=C(C1CC1)C1CC1 [Compound 20],excellent cytotoxic action
8,"CNC(=O)c1cc(Oc2ccc(NC(=O)Nc3ccc(Cl)c(C(F)(F)F)c3)cc2)ccn1 [Sorafenib, reference compound]",excellent cytotoxic action

# System: Liver mesenchymal stem cells
# Assay: MTT cytotoxicity assay, liver mesenchymal stem cells (normal cell line)
# Format: cell-based
# Settings: 24 h
# Method: as §2
row,SMILES,IC50
1,"NN=C(C1CC1)C1CC1 [Compound 2, dicyclopropylmethylene hydrazone]",> 100 µM
2,COc1ccc(/C=N\N=C(C2CC2)C2CC2)cc1 [Compound 3a],> 100 µM
3,O=[N+]([O-])c1ccc(/C=N\N=C(C2CC2)C2CC2)cc1 [Compound 3b],90.2 µM
4,"O=C1Nc2ccccc2/C1=N/N=C(C1CC1)C1CC1 [Compound 4, 3-(dicyclopropylmethylene)hydrazone indolin-2-one]",100 µM
5,Oc1ccccc1/C=N/N=C/c1ccccc1O [Compound 5],> 100 µM
6,NC1=NNC2(C(=O)Nc3ccccc32)N1N=C(C1CC1)C1CC1 (centres unmarked) [Compound 7a],> 100 µM
7,O=C1Nc2ccccc2C12NN=C(c1ccccc1)N2N=C(C1CC1)C1CC1 (centres unmarked) [Compound 7b],100 µM
8,NC1=NNC(c2ccccc2O)N1/N=C\c1ccccc1O (centres unmarked) [Compound 8a],100 µM
9,Oc1ccccc1/C=N\N1C(c2ccccc2)=NNC1c1ccccc1O (centres unmarked) [Compound 8b],75.5 µM
10,"Cc1nc2ccccc2c(=O)n1N=C(C1CC1)C1CC1 [Compound 11, 3-((dicyclopropylmethylene)amino)-2-methylquinazolin-4(3H)-one]",> 100 µM
11,O=C1C(=O)c2ccccc2C2=C1NNC(C1CC1)(C1CC1)O2 [Compound 13],85.2 µM
12,O=C1CCC(=O)N1N=C(C1CC1)C1CC1 [Compound 16],76.5 µM
13,NC1=CC(=O)NNC1(C1CC1)C1CC1 [Compound 18],100 µM
14,Cc1nc2ccccc2c(=O)n1NC(=S)N=C(C1CC1)C1CC1 [Compound 20],61.5 µM
15,"CNC(=O)c1cc(Oc2ccc(NC(=O)Nc3ccc(Cl)c(C(F)(F)F)c3)cc2)ccn1 [Sorafenib, reference compound]",100 µM

# System: HepG2 cells
# Assay: Wound healing (cell migration) assay
# Format: cell-based, human
# Settings: 24 h, versus untreated control
# Method: The wound healing assay was used to investigate the anti-cell migration/antiproliferation effects of synthesized hydrazone derivatives on the HepG2 cell line. In DMEM medium supplemented with 10% fetal bovine serum (FBS), 100 U per mL penicillin, and […] streptomycin, cells were cultured at 37 °C and 5% CO2. After reaching 80% density, the monolayer cells were scratched using a sterile tip and then washed with phosphate buffered saline, pH 7.4. Different hydrazone derivatives were applied to cells, which were then incubated for 24 h at 37 °C and 5% CO2. Finally, an Olympus microscope (Olympus Europa, Hamburg, Germany) was used to take pictures of the wound areas at 0 and 24 h. The relative cell migration was calculated using the following equation:Relative migration = (width0h − width24h)/width0h
row,SMILES,cell migration of HepG2 cells
1,"NN=C(C1CC1)C1CC1 [Compound 2, dicyclopropylmethylene hydrazone]",substantially reduced
2,"O=C1Nc2ccccc2/C1=N/N=C(C1CC1)C1CC1 [Compound 4, 3-(dicyclopropylmethylene)hydrazone indolin-2-one]",substantially reduced
3,NC1=NNC(c2ccccc2O)N1/N=C\c1ccccc1O (centres unmarked) [Compound 8a],substantially reduced
4,O=C1C(=O)c2ccccc2C2=C1NNC(C1CC1)(C1CC1)O2 [Compound 13],substantially reduced
5,O=C1CCC(=O)N1N=C(C1CC1)C1CC1 [Compound 16],substantially reduced
6,NC1=CC(=O)NNC1(C1CC1)C1CC1 [Compound 18],substantially reduced
7,Cc1nc2ccccc2c(=O)n1NC(=S)N=C(C1CC1)C1CC1 [Compound 20],substantially reduced
8,"CNC(=O)c1cc(Oc2ccc(NC(=O)Nc3ccc(Cl)c(C(F)(F)F)c3)cc2)ccn1 [Sorafenib, reference compound]",substantially reduced

# Same assay, conditions: HepG2, 24 h, quantified relative migration
row,SMILES,antimigration effect compared to sorafenib
1,O=C1C(=O)c2ccccc2C2=C1NNC(C1CC1)(C1CC1)O2 [Compound 13],significant antimigration effect
2,O=C1CCC(=O)N1N=C(C1CC1)C1CC1 [Compound 16],significant antimigration effect
3,Cc1nc2ccccc2c(=O)n1NC(=S)N=C(C1CC1)C1CC1 [Compound 20],significant antimigration effect

# System: HepG2 cells
# Assay: Active caspase 3 apoptosis flow cytometry
# Format: cell-based, human
# Settings: HepG2, active caspase 3, in words
# Method: as §1
# FITC active caspase-3 apoptosis kit (BD Biosciences, Franklin Lakes, NJ, USA) was used for detection of active caspase 3 followed by flow cytometry analysis according to the instructions of the kit manufacturer.
row,SMILES,percentage of apoptotic cells compared to the control group
1,"NN=C(C1CC1)C1CC1 [Compound 2, dicyclopropylmethylene hydrazone]",increased significantly
2,"O=C1Nc2ccccc2/C1=N/N=C(C1CC1)C1CC1 [Compound 4, 3-(dicyclopropylmethylene)hydrazone indolin-2-one]",increased significantly
3,NC1=NNC(c2ccccc2O)N1/N=C\c1ccccc1O (centres unmarked) [Compound 8a],increased significantly
4,O=C1C(=O)c2ccccc2C2=C1NNC(C1CC1)(C1CC1)O2 [Compound 13],increased significantly
5,O=C1CCC(=O)N1N=C(C1CC1)C1CC1 [Compound 16],increased significantly
6,NC1=CC(=O)NNC1(C1CC1)C1CC1 [Compound 18],increased significantly
7,Cc1nc2ccccc2c(=O)n1NC(=S)N=C(C1CC1)C1CC1 [Compound 20],increased significantly
8,"CNC(=O)c1cc(Oc2ccc(NC(=O)Nc3ccc(Cl)c(C(F)(F)F)c3)cc2)ccn1 [Sorafenib, reference compound]",increased significantly

# Same assay, conditions: HepG2, active caspase 3, text value
row,SMILES,percentage of apoptotic cells
1,O=C1CCC(=O)N1N=C(C1CC1)C1CC1 [Compound 16],80%
2,"CNC(=O)c1cc(Oc2ccc(NC(=O)Nc3ccc(Cl)c(C(F)(F)F)c3)cc2)ccn1 [Sorafenib, reference compound]",75%
